What was measured:
[1] = molecular target: T1, ICE (Homo sapiens, UniProt P29466); experiment: Enzyme assay with fluorescent substrate (Acetyl-Tyr-Val-Ala-Asp-AMC); Ki and second order rate constants kinact; assay type: biochemical; conditions: for kinact (ICE): second-order rate constant for inactivation, irreversible inhibitors (Table 2)
T1 sequence (P29466 120-297 limits assumed): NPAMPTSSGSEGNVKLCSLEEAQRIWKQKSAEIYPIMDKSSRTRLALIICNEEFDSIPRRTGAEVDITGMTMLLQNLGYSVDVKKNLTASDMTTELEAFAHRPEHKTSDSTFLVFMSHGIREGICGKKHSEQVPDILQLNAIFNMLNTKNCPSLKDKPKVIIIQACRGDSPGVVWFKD
T1 sequence (P29466 317-404 limits assumed): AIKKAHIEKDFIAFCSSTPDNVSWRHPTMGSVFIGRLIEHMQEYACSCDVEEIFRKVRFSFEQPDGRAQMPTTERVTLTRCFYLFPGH
Description: 2. Enzyme Assay with Fluorescent Substrate
This assay is run essentially according to Thornberry et al. (Nature 356: 768-774 (1992)), using substrate 17 referenced in that article. The substrate is: Acetyl-Tyr-Val-Ala-Asp-amino-4-methylcoumarin (AMC). The following components are mixed:
The assay is run in a 96 well microtiter plate. Buffer and ICE are added to the wells. The components are left to incubate at 37° C. for 15 minutes in a temperature-controlled wellplate. After the 15 minute incubation, the reaction is started by adding substrate directly to the wells and the reaction is monitored @37° C. for 30 minutes by following the release of the AMC fluorophore using an excitation wavelength for 380 nm and an emission wavelength of 460 nm. A linear fit of the data for each well is performed and a rate is determined in fluorescence units per second.
For determination of enzyme inhibition constants (Ki) or the mode of inhibition (competitive, uncompetitive or noncompetitive), the rate data determined in the enzyme assays at varying inhibitor concentrations are computer-fit to standard enzyme kinetic equations (see I. H. Segel, Enzyme Kinetics, Wiley-Interscience, 1975).
The determination of second order rate constants for irreversible inhibitors was performed by fitting the fluorescence vs time data to the progress equations of Morrison. Morrison, J. F., Mol. Cell. Biophys., 2, pp. 347-368 (1985). Thornberry et al. have published a description of these methods for measurement of rate constants of irreversible inhibitors of ICE. Thornberry, N. A., et al. Biochemistry, 33, pp. 3923-3940 (1994). For compounds where no prior complex formation can be observed kinetically, the second order rate constants (kinact) are derived directly from the slope of the linear plots of kobs vs. [I]. For compounds where prior complex formation to the enzyme can be detected, the hyperbolic plots of kobs vs. [I] are fit to the equation for saturation kinetics to first generate Ki and k′. The second order rate constant kinact is then given by k′/Ki.
(§1) The selectivity of a panel of reversible inhibitors for ICE homologs is depicted in Table 1. ICE enzyme assays were performed according to Wilson et al (supra 1994) using a YVAD-AMC substrate (Thornberry et al, supra 1992). Assay of TX activity was performed using the ICE substrate under identical conditions to ICE. Assay of CPP32 was performed using a DEVD-AMC substrate (Nicholson et al., supra 1995). In general, there is low selectivity between ICE and TX for a wide range of scaffolds. None of the synthetic ICE compounds tested are effective inhibitors of CPP32.
(§2) Second-order rate constants for inactivation of ICE and ICE homologs with selected irreversible inhibitors are presented below (Table 2). The irreversible compounds studied are broad spectrum inhibitors of ICE and its homologs. Some selectivity, however, is observed with the irreversible compounds comparing inhibition of ICE and CPP32.

[2] = molecular target: T2, CPP32 (Homo sapiens, UniProt P42574); experiment: Inhibition of ICE homologs: CPP32 (DEVD-AMC substrate); conditions: for kinact (CPP32): second-order rate constant for inactivation, irreversible inhibitors (Table 2)
T2 sequence (P42574 29-175 limits assumed): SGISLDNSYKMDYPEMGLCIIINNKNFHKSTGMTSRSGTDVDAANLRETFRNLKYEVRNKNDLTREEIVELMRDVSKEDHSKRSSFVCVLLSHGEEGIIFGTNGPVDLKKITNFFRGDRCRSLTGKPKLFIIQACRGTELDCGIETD
T2 sequence (P42574 176-277 limits assumed): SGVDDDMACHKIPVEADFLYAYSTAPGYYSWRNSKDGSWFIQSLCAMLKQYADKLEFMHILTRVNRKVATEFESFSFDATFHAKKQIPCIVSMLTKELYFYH

[3] = molecular target: T3, TX (Homo sapiens, UniProt P49662); experiment: Inhibition of ICE homologs: TX; assay type: biochemical; conditions: for Ki: ICE substrate, conditions identical to ICE (Table 1); for kinact (TX): second-order rate constant for inactivation, irreversible inhibitors (Table 2)
T3 construct: made in house; host or cells: Spodoptera frugiperda (Sf9) insect cells, recombinant baculovirus (pVL1393/TX)
T3 sequence (P49662 81-270 limits assumed): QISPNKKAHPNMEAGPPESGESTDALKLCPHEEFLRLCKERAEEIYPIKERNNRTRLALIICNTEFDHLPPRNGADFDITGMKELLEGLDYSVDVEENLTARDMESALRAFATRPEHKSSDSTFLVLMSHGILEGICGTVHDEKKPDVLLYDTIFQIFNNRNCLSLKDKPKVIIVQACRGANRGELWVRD
T3 sequence (P49662 290-377 limits assumed): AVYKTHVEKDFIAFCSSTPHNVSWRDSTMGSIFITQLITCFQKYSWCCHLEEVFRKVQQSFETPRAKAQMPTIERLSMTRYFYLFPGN
From the text: Expression of TX in insect cells using a baculovirus expression system. We have subcloned Tx cDNA (Faucheu et al., supra 1995) into a modified pVL1393 transfer vector, co-transfected the resultant plasmid (pVL1393/TX) into insect cells with viral DNA and identified the recombinant baculovirus. After the generation of high titer recombinant virus stock, the medium was examined for TX activity using the visible ICE assay. […] ICE was used as a standard in the assay.
as §1, §2

[4] = tested on: U937 cells; experiment: Fas-induced apoptosis in U937 cells; conditions: Homo sapiens; for inhibition at 20 µM: U-937, read-out: Inhibition of apoptosis
Description: Fas-Induced Apoptosis in U937 cells. Compounds were evaluated for their ability to block anti-Fas-induced apopotosis. […] We used this cell line for apoptosis studies. U937 cells were seeded in culture at 1×10^5 cells/ml and grown to ˜5×10^6 cells/ml. For apoptosis experiments, 2×10^6 cells were plated in 24-well tissue culture plates in 1 ml RPMI-1640-10% FBS and stimulated with 100 ng/ml anti-Fas antigen antibody (Medical and Biological Laboratories, Ltd.). After a 24 hr incubation at 37° C., the percentage of apoptotic cells was determined by FACS analysis using ApoTag reagents.

**Q.** Which “Fluorescent Assay kinact” value ([1]; Table 18) does the source give for `CS(=O)(=O)N[C@H]1CCC(=O)N2CCC[C@@H](C(=O)N[C@@H](CC(=O)O)C(=O)COC(=O)c3sccc3Cl)N2C1=O` [505 e, [3S(1S,9S)]5-(3-Chlorothien-2-oyloxy)-3-(6,10-dioxo-9-methanesulphonylamino-1,2,3,4,7,8,9,10-octahydro-6H-pyridazino[1,2-a][1,2]diazepine-1-carboxamido)-4-oxopentanoic acid] here?
**A.** 420000 m^−1 s^−1

**Q.** Which results are given for `O=C(O)C[C@H](NC(=O)[C@@H]1CCCN2C(=O)CC[C@H](NC(=O)CCc3ccccc3)C(=O)N12)C(=O)CSCc1ccccc1Cl` [Compound 125b, [3S(1S,9S)]-3-(6,10-dioxo-1,2,3,4,7,8,9,10-octahydro)-9-(3-phenylpropionyl-amino)-6H-pyridazine[1,2-a][1,2]diazepine-1-carboxamido-5-(2-chlorophenyl-methylthio)-4-oxopentanoic acid]?
**A.** Ki [2]: > 1 µM; Ki [3]: 0.057 ± 0.013 µM

**Q.** How did the Ki [2] turn out when `COc1cccc2nc(C(=O)[C@H](CC(=O)O)NC(=O)[C@@H]3CCCN4C(=O)CC[C@H](NC(=O)CCc5ccccc5)C(=O)N34)oc12` [Compound 135a] was run?
**A.** > 1 µM

**Q.** And the Ki [3]?
**A.** 0.055 ± 0.009 µM

**Q.** Which inhibition at 20 µM [4] does the source give for `O=C(O)C[C@H](NC(=O)[C@@H]1CCCN2C(=O)CC[C@H](NC(=O)CCc3ccccc3)C(=O)N12)C(=O)COC(=O)c1c(Cl)cccc1Cl` [Compound 136] here?
**A.** > 75%

**Q.** And the “Fluorescent Assay kinact” value ([1]; Table 6)?
**A.** 5.4 × 10^5 m^−1 s^−1

**Q.** With `O=C(O)C[C@H](NC(=O)[C@@H]1CCCN2C(=O)CC[C@H](NC(=O)CCc3ccccc3)C(=O)N12)C(=O)c1ncc(-c2c(Cl)cccc2Cl)o1` [Compound 137] as the compound, how does the Ki [2] read?
**A.** > 1 µM

**Q.** What about the Ki [3] of the same compound?
**A.** 0.04 ± 0.007 µM

**Q.** With `CS(=O)(=O)N[C@H]1CCC(=O)N2CCC[C@@H](C(=O)N[C@@H](CC(=O)O)C(=O)COC(=O)c3c(Cl)cccc3Cl)N2C1=O` [Compound 138] as the compound, how does the inhibition at 20 µM [4] read?
**A.** > 75%

**Q.** What about the “Fluorescent Assay kinact” value ([1]; Table 6) of the same compound?
**A.** 1.2 × 10^5 m^−1 s^−1

**Q.** And the “kinact (ICE)” value [1]?
**A.** 120,000 M^−1 s^−1

**Q.** What about the “kinact (CPP32)” value [2] of the same compound?
**A.** 550,000 M^−1 s^−1

**Q.** What about the “kinact (TX)” value [3] of the same compound?
**A.** 150,000 M^−1 s^−1

**Q.** Which results are given for `O=C(O)C[C@H](NC(=O)[C@@H]1CCCN2C(=O)CC[C@H](NC(=O)OCc3ccccc3)C(=O)N12)C(=O)COC(=O)c1c(Cl)cccc1Cl` [Compound 217d, [3S(1S,9S)]3-(9-Benzyloxycarbonylamino-6,10-dioxo-1,2,3,4,7,8,9,10-octahydro-6H-pyridazino[1,2-a][1,2]-diazepine-1-carboxamido)-5-(2,6-dichlorobenzoyloxy)-4-oxopentanoic acid]?
**A.** Fluorescent Assay kinact ([1]; Table 6): 4.7 × 10^5 m^−1 s^−1; kinact (ICE) [1]: 475,000 M^−1 s^−1; kinact (CPP32) [2]: 150,000 M^−1 s^−1; kinact (TX) [3]: 250,000 M^−1 s^−1

**Q.** How did the IC50 ([4]; U-937, 24 h, read-out: IC50, anti-Fas-induced apoptosis) turn out when `O=C(O)C[C@H](NC(=O)[C@@H]1CCCN2C(=O)CC[C@H](NC(=O)c3ccccc3)C(=O)N12)C(=O)COC(=O)c1c(Cl)cccc1Cl` [Compound 217e, [3S(1S,9S)]3-(9-Benzoylamino-6,10-dioxo-1,2,3,4,7,8,9,10-octahydro-6H-pyridazino[1,2-a][1,2]-diazepine-1-carboxamido)-5-(2,6-dichlorobenzoyloxy)-4-oxopentanoic acid] was run?
**A.** 0.8 µM

**Q.** For `O=C(O)C[C@H](NC(=O)[C@@H]1CCCN2C(=O)CC[C@H](NC(=O)c3ccccc3)C(=O)N12)C(=O)CSc1nnnn1-c1ccccc1` [Compound 280, [3S(1S,9S)]3-(9-Benzoylamino-6,10-dioxo-1,2,3,4,7,8,9,10-octahydro-6H-pyridazino[1,2-a][1,2]diazepine-1-carboxamido)-4-oxo-5(1-phenyl-1H-tetrazole-5-thio)pentanoic acid], which “Fluorescent Assay kinact” value ([1]; Table 6) is on record?
**A.** 4 × 10^5 m^−1 s^−1

**Q.** With `O=C(O)C[C@H](NC(=O)[C@@H]1CCCN2C(=O)CC[C@H](NC(=O)c3ccccc3)C(=O)N12)C(=O)COc1cccnc1` [Compound 283, [3S(1S,9S)]3-[9-Benzoylamino-6,10-dioxo-1,2,3,4,7,8,9,10-octahydro-6H-pyridazino[1,2-a][1,2]diazepine-1-carboxamido]-4-oxo-5-(3-pyridyloxy)pentanoic acid] as the compound, how does the “Fluorescent Assay kinact” value ([1]; Table 6) read?
**A.** 1 × 10^5 m^−1 s^−1

**Q.** For `COC(=O)N[C@H]1CCC(=O)N2CCC[C@@H](C(=O)N[C@@H](CC(=O)O)C(=O)COC(=O)c3c(Cl)cccc3Cl)N2C1=O` [Compound 284, [3S(1S,9S)]5-(2,6-Dichlorobenzoyloxy)-3-[6,10-dioxo-9-(methoxycarbonyl)amino-1,2,3,4,7,8,9,10-octahydro-6H-pyridazino[1,2-a][1,2]diazepine-1-carboxamido]-4-oxopentanoic acid], which “Fluorescent Assay kinact” value ([1]; Table 6) is on record?
**A.** 3.5 × 10^5 m^−1 s^−1

**Q.** How did the “Fluorescent Assay kinact” value ([1]; Table 6) turn out when `COC(=O)N[C@H]1CCC(=O)N2CCC[C@@H](C(=O)N[C@@H](CC(=O)O)C(=O)COC(=O)c3c(C)cccc3C)N2C1=O` [Compound 285, [3S(1S,9S)]5-(2,6-Dimethylbenzoyloxy)-3-[6,10-dioxo-9-(methoxycarbonyl)amino-1,2,3,4,7,8,9,10-octahydro-6H-pyridazino[1,2-a][1,2]diazepine-1-carboxamido]-4-oxopentanoic acid] was run?
**A.** 4.3 × 10^5 m^−1 s^−1

**Q.** `CS(=O)(=O)N[C@H]1CCC(=O)N2CCC[C@@H](C(=O)N[C@@H](CC(=O)O)C(=O)COC(=O)c3cccc4ccccc34)N2C1=O` [Compound 286, [3S(1S,9S)]3-(6,10-Dioxo-9-methanesulphonylamino-1,2,3,4,7,8,9,10-octahydro-6H-pyridazino[1,2-a][1,2]diazepine-1-carboxamido)-5-(1-naphthoyloxy)-4-oxopentanoic acid] was tested. Which “Fluorescent Assay kinact” value ([1]; Table 18) did it give?
**A.** 370000 m^−1 s^−1

**Q.** How did the “Fluorescent Assay kinact” value ([1]; Table 18) turn out when “[3S(1S,9S)]3-[(6,10-Dioxo-9-(methanesulphonylamino)-1,2,3,4,7,8,9,10-octahydro-6H-pyridazino[1,2-a][1,2]diazepine-1-carboxamido]-5-(5-methyl-3-phenylisoxazoyloxy)-4-oxopentanoic acid [505 b]” was run?
**A.** 190000 m^−1 s^−1

From patent publication US20120165319A1, “INHIBITORS OF INTERLEUKIN-1 BETA CONVERTING ENZYME” (VERTEX PHARMACEUTICALS INCORPORATED, priority 1995, published 2012)
